Values of other authors, collected in patent publication US20050240051A1, “Dispersing agent or solubilizing agent containing calixarene compound” (Ajinomoto Co., Inc., priority 2002, published 2005).

c12c3c4c5c1c1c6c7c2c2c8c3c3c9c4c4c%10c5c5c1c1c6c6c%11c7c2c2c7c8c3c3c8c9c4c4c9c%10c5c5c1c1c6c6c%11c2c2c7c3c3c8c4c4c9c5c1c1c6c2c3c41 [fullerene]
solubility in hydrocarbon solvents and alcohol solvents: not more than 0.1 mg/ml | solubility in toluene: about 3 mg/ml | solubility in 1-methylnaphthalene (at around normal temperature): about 33 mg/ml
